Source: patent US6344456B1, “Piperazinone derivatives and their uses” (Laboratoire L. Lafon, priority 1998, dated 2002)
Like-named read-outs stand apart in the source and are kept apart here.

Legend:
Human Platelets = assay: In vitro inhibition of collagen-induced platelet aggregation, human platelet-rich plasma; format: cell-based; conditions: human PRP, collagen 5 μg/ml, 3 minutes of contact at 37° C., read-out: IC50 (M) in vitro Man
Method: A study of the inhibitory activity of the compounds of formula I on platelet aggregation was carried out in vitro, i.e. by direct contact of solutions of variable concentrations of the compounds with platelets freshly separated from a sample of whole blood, taken under standardized conditions, from laboratory animals (guinea pigs) and from healthy human subjects who have not received any substances or drugs that might interfere with blood clotting. The anti-platelet-aggregating activity was also studied ex vivo/vitro, i.e. after administration of the substances claimed in guinea pigs to measure the intensity and duration of the anti-aggregating action induced by the fraction of the test product absorbed and circulating in the blood. 1.2 Study on Human Platelets Venous blood is taken from a group of ten healthy human subjects of the same age, by puncture into a vein of the fold of the elbow and is collected in a glass tube containing aqueous 0.129 M sodium citrate solution (1 volume of citrate solution per 9 volumes of blood). Each tube is then centrifuged a first time at 20° C. and 100 g for 15 minutes in order to obtain the platelet-rich plasma (PRP); after removing this PRP, the tube is again centrifuged at 2,000 g for 15 minutes in order this time to remove the platelet-poor plasma (PPP). For each identified sample of PRP, the platelets are counted using a Coulter ZM counter. […] A control test intended to check the possible effect of the solvents (reference value) on the platelet aggregation is introduced into each measurement series, and is measured after 3 minutes of contact at 37° C. with agitation.

[1] = tested on: platelet aggregation induced by collagen; assay: Ex vivo/vitro anti-platelet-aggregating activity in guinea pigs after gastric administration; set-up: species or system guinea pig; conditions: for % of g.r. inhibition guinea pig ex vivo d = 150 mg/kg −1 h: administered 1 h before blood is taken; for % of g.r. inhibition guinea pig ex vivo d = 150 mg/kg −2 h: administered 2 h before blood is taken
Method: (§1) A study of the inhibitory activity of the compounds of formula I on platelet aggregation was carried out in vitro, i.e. by direct contact of solutions of variable concentrations of the compounds with platelets freshly separated from a sample of whole blood, taken under standardized conditions, from laboratory animals (guinea pigs) and from healthy human subjects who have not received any substances or drugs that might interfere with blood clotting. The anti-platelet-aggregating activity was also studied ex vivo/vitro, i.e. after administration of the substances claimed in guinea pigs to measure the intensity and duration of the anti-aggregating action induced by the fraction of the test product absorbed and circulating in the blood.
2. ex vivo/vitro Pharmacological Study in Guinea Pigs
Evaluation of the anti-platelet-aggregating activity of the compounds is carried out in the same guinea pigs as those mentioned above (Dunkin-Hartley strain). The administration of each product in a range of doses from 150 mg/kg to 10 mg/kg and of each vehicle (5 ml/kg) is carried out via the gastric route (g.r.) 1h or 2h or 4h or 6h or 8h or 12h before blood is taken from the guinea pigs fasted the day before. The allocation of the treatments to the animals is random.
The blood is taken and then treated under the same conditions as those described above for the in vitro studies.
The results of the inhibition of the platelet aggregation obtained for each test concentration make it possible to calculate the IC50 concentration of each test product and the kinetics of the inhibitory effect and its duration of action.

Guinea Pig Platelets = assay: In vitro inhibition of collagen-induced platelet aggregation, guinea pig platelet-rich plasma; format: cell-based; conditions: guinea pig PRP, collagen 1 μg/ml, 3 minutes of contact at 37° C.
Method: as §1
1.1. Studies on Guinea Pig Platelets
Blood is taken by intracardiac puncture from male Dunkin-Hartley guinea pigs (weighing about 330 g), at a rate of 4.5 ml per 0.5 ml of trisodium citrate (concentration of the aqueous solution: 1.55%) in order to prevent all trace of clotting. The platelet-rich plasma (PRP) is obtained by centrifuging the tubes of whole blood for 15 minutes at 150 g.
The PRPs are collected as. “pools”. The platelets contained in these pools are counted using a Coulter ZM haematology automatic device: if necessary, a dilution is carried out in order for the platelet concentration in the plasma to be between 200,000 and 400,000 platelets/mm^3. Simultaneously, other samples of these pools serve to prepare the platelet-poor plasma (PPP) by centrifugation at 1,500 g for 15 minutes.
The kinetic study of the platelet aggregation is carried out by adding a collagen solution (1 μg/ml) to a volume of PRP, using a Chrono-log Corporation aggregometer (490-D1 or 560 VS) which uses an optical detection of the appearance of the thrombus.
The measurements of the aggregation inhibition are carried out after 3 minutes of contact at 37° C. with agitation.

[2] = Cavia porcellus, Platelet, 0.05 h

Compound | IC50 (Human Platelets; Platelet, 0.05 h) [M] | IC50 (Guinea Pig Platelets; [2]) [µM] | % of g.r. inhibition guinea pig ex vivo d = 150 mg/kg −1 h [1] [%] | % of g.r. inhibition guinea pig ex vivo d = 150 mg/kg −2 h [1] [%] | IC50 (Guinea Pig Platelets) [µM] | IC50 (Human Platelets) [M] | anti-aggregating action ex-vivo in guinea pigs, oral dose 10 mg/kg, 1h ([1]; 10 mg/kg, administered 1h before the aggregation test) [%] | anti-aggregating action ex-vivo in guinea pigs, oral dose 10 mg/kg, 2h ([1]; 10 mg/kg, administered 2h before the aggregation test) [%]
CC(=O)O.CCOC(=O)CC(NC(=O)CN1CCN(c2ccc(C(=N)N)cc2)CC1=O)c1ccc2c(c1)OCO2 (centres unmarked) [Example 18, Ethyl 3-{[2-(4-{4-[amino(imino)methyl]phenyl}-2-oxopiperazino)acetyl]amino}-3-(1,3-benzodioxol-5-yl)propanoate acetate] | 8.1e-05 | 0.2 | −70 | −69 |  |  |  | 
CCOC(=O)CCNC(=O)CN1CCN(c2ccc(C(N)=NO)cc2)CC1=O [Example 1, Ethyl 3-{[12-(4-{4-[amino(hydroxyimino)methyl]phenyl}-2-oxopiperazino)acetyl]amino}propanoate] |  |  | −72 | −73 | > 1000 |  |  | 
CCOC(=O)CC(CCc1ccccc1)NC(=O)CN1CCN(c2ccc(C(=N)N)cc2)CC1=O (centres unmarked) [Example 22, Ethyl 3-{[2-(4-{4-[amino(imino)methyl]phenyl}-2-oxopiperazino)acetyl]amino}-5-phenylpentanoate acetate] | 7.1e-05 | 0.51 |  |  |  |  |  | 
CC(=O)O.CCOC(=O)CCNC(=O)CN1CCN(c2ccc(C(=N)N)cc2)CC1=O [Example 16, Ethyl 3-{[2-(4-{4-[amino(imino)methyl]phenyl}-2-oxopiperazino)acetyl]amino}proanoate acetate] |  |  | −75 | −73 | 3.8 |  |  | 
Cl.N=C(N)c1ccc(N2CCN(CC(=O)NC(CC(=O)O)c3ccc4c(c3)OCO4)CC2=O)cc1 (centres unmarked) [Example 30, 3-{[2-(4-{4-[amino(imino)methyl]phenyl}-3-oxopiperazino)acetyl]amino}-3-(1,3-benzodioxol-5-yl)propanoic acid hydrochloride] | 1.2e-06 | 15 | −14 | −17 |  |  |  | 
3-{[2-(4-{4-[amino(imino)methyl]phenyl}-2-oxopiperazino)acetyl]amino}-3-(pyridyl)propanoic acid acetate [Example 21] |  |  | −78 | −79 | 0.16 | 8.6e-07 |  | 
Ethyl 3-{[2-(4-{4-[amino(imino)methyl]phenyl}-2-oxopiperazino)-acetyl]amino}-3-(pyridyl)propanoate acetate [Example 20] |  |  | −65 | −64 | 0.63 | 2.8e-05 |  | 
Cl.N=C(N)c1ccc(N2CCN(CC(=O)NC(CC(=O)O)c3ccc4c(c3)OCO4)C(=O)C2)cc1 (centres unmarked) [Example 19, 3-{[2-(4-{4-[amino(imino)methyl]phenyl}-2-oxopiperazino)acetyl]amino}-3-(1,3-benzodioxol-5-yl)propanoic acid hydrochloride] | 3.4e-07 | 0.15 | −69 | −78 |  |  | 57 | 24

More lines, main results first:

IC50 (Human Platelets; Platelet, 0.05 h) [M] | IC50 (Guinea Pig Platelets; [2]) [µM] | Compound | % of g.r. inhibition guinea pig ex vivo d = 150 mg/kg −1 h [1] [%] | % of g.r. inhibition guinea pig ex vivo d = 150 mg/kg −2 h [1] [%] | IC50 (Guinea Pig Platelets) [µM] | IC50 (Human Platelets) [M] | anti-aggregating action ex-vivo in guinea pigs, oral dose 10 mg/kg, 1h ([1]; 10 mg/kg, administered 1h before the aggregation test) [%] | anti-aggregating action ex-vivo in guinea pigs, oral dose 10 mg/kg, 2h ([1]; 10 mg/kg, administered 2h before the aggregation test) [%]
5.2e-06 | 4.8 | Cl.N=C(N)c1ccc(N2CCN(CC(=O)NCCC(=O)O)C(=O)C2)cc1 [Example 17, 3-{[2-(4-{4-[amino(imino)methyl]phenyl}-2-oxopiperazino)acetyl]amino}propanoic acid hydrochloride] | −43 | −38 |  |  |  | 
1.4e-06 | 16 | Cl.N=C(N)c1ccc(N2CCN(CC(=O)NCCC(=O)O)CC2=O)cc1 [Example 28, 3-{[2-(4-{4-[amino(imino)methyl]phenyl}-3-oxopiperazino)acetyl]amino}propanoic acid hydrochloride] | −28 | −23 |  |  |  | 
